We go through 7 molecules from ChEMBL document CHEMBL5344433, “Target Separation and Potential Anticancer Activity of Withanolide-Based Glucose Transporter Protein 1 Inhibitors from Physalis angulata var. villosa” (J Nat Prod, 2024).

Series [1] deals with T1, Solute carrier family 2, facilitated glucose transporter member 1 (Homo sapiens) (UniProt P11166).
T1 sequence (whole entry): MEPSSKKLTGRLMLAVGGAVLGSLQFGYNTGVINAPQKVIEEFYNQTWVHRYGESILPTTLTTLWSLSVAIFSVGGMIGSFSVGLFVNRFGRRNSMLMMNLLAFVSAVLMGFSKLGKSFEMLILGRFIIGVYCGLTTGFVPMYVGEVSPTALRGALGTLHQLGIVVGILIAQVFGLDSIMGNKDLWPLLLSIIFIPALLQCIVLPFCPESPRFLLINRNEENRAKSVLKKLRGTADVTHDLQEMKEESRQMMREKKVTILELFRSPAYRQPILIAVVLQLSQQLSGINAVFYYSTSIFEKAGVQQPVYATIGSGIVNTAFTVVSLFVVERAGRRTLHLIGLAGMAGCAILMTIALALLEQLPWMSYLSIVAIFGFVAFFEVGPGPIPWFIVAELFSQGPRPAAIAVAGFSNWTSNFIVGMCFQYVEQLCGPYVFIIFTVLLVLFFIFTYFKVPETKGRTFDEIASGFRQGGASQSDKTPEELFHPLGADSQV
Kind of series: Agonist activity at GLUTI (unknown origin). To be noted: filed as agonist.

Series [2] concerns MCF7. Kind of series: Induction of apoptosis in human MCF7 cells assessed as viable cells at 20 uM incubated for 24 hrs by Annexin V-FITC/7AAD staining based flow cytometery (reference value: 98.8%). The series is classed as functional. The note with it: read-out: Activity.
For series [3], the target named is T1, Solute carrier family 2, facilitated glucose transporter member 1 (Homo sapiens). Kind of series: Inhibition of GLUT1 in human MCF7 cells assessed as fold change at 5 uM by Western blot analysis. Type of series: cell-based.
Series [4] has as its system MCF7. Kind of series: Induction of apoptosis in human MCF7 cells assessed as early apoptotic cells at 10 uM incubated for 24 hrs by Annexin V-FITC/7AAD staining based flow cytometery (reference value: 0.50%). Type of series: functional.
For series [5], the system named is MCF7. Kind of series: Induction of apoptosis in human MCF7 cells assessed as viable cells at 10 uM incubated for 24 hrs by Annexin V-FITC/7AAD staining based flow cytometery (reference value: 98.8%). The note with it: read-out: Activity. Type of series: functional.
The target of series [6] is T1, Solute carrier family 2, facilitated glucose transporter member 1 (Homo sapiens). Kind of series: Inhibition of GLUT1 in human MCF7 cells assessed as decrease in extracellular acidification rate at 5 to 20 uM measured for 24 hrs by Seahorse XFe96 analyzer. The series is classed as cell-based. To be noted: dose 5-20 µM.
The test system of series [7] is MCF7. Kind of series: Induction of cell cycle arrest in human MCF7 cells assessed as accumulation of cells at G2/M phase at 5 uM by propidium iodide staining based flow cytometry (reference value: 9.72%). The series is classed as functional. To be noted: time 30 min, 0.5 h.
Series [8] deals with T1, Solute carrier family 2, facilitated glucose transporter member 1 (Homo sapiens). Kind of series: Inhibition of GLUT1 in human MCF7 cells assessed as fold change at 10 uM by Western blot analysis. The series is classed as cell-based.
Series [9] has as its system MCF7. Kind of series: Anticancer activity against human MCF7 cells assessed as increase in cell apoptosis at 20 uM incubated for 48 hrs relative to control. Type of series: functional.
Series [10] has as its target T1, Solute carrier family 2, facilitated glucose transporter member 1 (Homo sapiens). Kind of series: Inhibition of human GLUT1 in HEK293FT cells assessed as reduction in glucose uptake at 10 uM incubated for 24 hrs and further incubated for 1 hr under dark condition by flow cytometry. The series is classed as cell-based. The note with it: time 25.0 hrs.
For series [11], the target named is T2, Solute carrier family 2, facilitated glucose transporter member 1 (Homo sapiens, UniProt P11166).
T2 sequence (P11166 whole entry): T1 sequence (whole entry)
Description: Binding affinity to GLUT1 (unknown origin) assessed as dissociation constant at 800 uM by MST assay.

Series [12] relates to MCF7. Description: Induction of apoptosis in human MCF7 cells assessed as early apoptotic cells at 5 uM incubated for 24 hrs by Annexin V-FITC/7AAD staining based flow cytometery (reference value: 0.50%). Type of series: functional.
Series [13] has as its system MCF7. Description: Induction of cell cycle arrest in human MCF7 cells assessed as accumulation of cells at G2/M phase at 10 uM by propidium iodide staining based flow cytometry (reference value: 9.72%). The note with it: time 30 min, 0.5 h. The series is classed as functional.
Series [14] relates to MCF7. Description: Induction of oxidative stress in human MCF7 cells assessed as increase in intracellular ROS level at 5 to 20 uM incubated for 24 hrs. Type of series: functional, cell-based. To be noted: dose 5-20 µM.
A short description of series [15]: Cytotoxicity against human MCF7 cells assessed as reduction in cell viability incubated for 24 hrs by MTT assay. Type of series: toxicity, cell-based.
Series [16] deals with T2, Solute carrier family 2, facilitated glucose transporter member 1. Kind of series: Inhibition of GLUT1 in human MCF7 cells assessed as ATP production incubated for 24 hrs in presence of 0.1 mM glucose. The series is classed as cell-based.
Series [17] concerns MCF7. Kind of series: Induction of apoptosis in human MCF7 cells assessed as necrotic cells at 5 uM incubated for 24 hrs by Annexin V-FITC/7AAD staining based flow cytometery (reference value: 0.019%). Type of series: functional.
In series [18] the test system is MCF7. Description: Induction of apoptosis in human MCF7 cells assessed as late apoptotic cells at 10 uM incubated for 24 hrs by Annexin V-FITC/7AAD staining based flow cytometery (reference value: 0.68%). The series is classed as functional.
In series [19] the test system is MCF7. Description: Induction of oxidative stress in human MCF7 cells assessed as fold increase in intracellular ROS level at 20 uM incubated for 24 hrs. Type of series: functional.
The target of series [20] is T1, Solute carrier family 2, facilitated glucose transporter member 1 (Homo sapiens). Description: Inhibition of GLUT1 in human MCF7 cells assessed as fold change at 20 uM by Western blot analysis. The series is classed as cell-based.
Series [21] addresses T2, Solute carrier family 2, facilitated glucose transporter member 1. Kind of series: Inhibition of GLUT1 in human MCF7 cells assessed as ATP production incubated for 24 hrs in presence of 10 mM glucose. Type of series: cell-based.
The test system of series [22] is MCF7. Kind of series: Induction of cell cycle arrest in human MCF7 cells assessed as accumulation of cells at G2/M phase at 20 uM by propidium iodide staining based flow cytometry (reference value: 9.72%). Type of series: functional. The note with it: time 30 min, 0.5 h.
The test system of series [23] is MCF7. Kind of series: Anticancer activity against human MCF7 cells assessed as increase in cell necrosis at 20 uM incubated for 48 hrs relative to control. Type of series: functional.
Series [24] deals with MCF7. Description: Induction of apoptosis in human MCF7 cells assessed as necrotic cells at 10 uM incubated for 24 hrs by Annexin V-FITC/7AAD staining based flow cytometery (reference value: 0.019%). The series is classed as functional.
Series [25] deals with T1, Solute carrier family 2, facilitated glucose transporter member 1 (Homo sapiens). Kind of series: Inhibition of GLUT1 in human MCF7 cells assessed as reduction in maximal respiratory capacity at 5 to 20 uM incubated for 24 hrs by Seahorse XFe96 analyzer. The series is classed as cell-based. To be noted: dose 5-20 µM.
For series [26], the system named is MCF7. Kind of series: Induction of apoptosis in human MCF7 cells assessed as viable cells at 5 uM incubated for 24 hrs by Annexin V-FITC/7AAD staining based flow cytometery (reference value: 98.8%). The series is classed as functional. To be noted: read-out: Activity.
Series [27] relates to MCF7. Kind of series: Induction of apoptosis in human MCF7 cells assessed as necrotic cells at 20 uM incubated for 24 hrs by Annexin V-FITC/7AAD staining based flow cytometery (reference value: 0.019%). Type of series: functional.
The target in series [28] is T1, Solute carrier family 2, facilitated glucose transporter member 1 (Homo sapiens). Description: Inhibition of GLUT1 in human MCF7 cells assessed as reduction in lactate production measured after 24 hrs. Type of series: cell-based. To be noted: dose 5-20 µM.
Series [29] has the same target. Kind of series: Inhibition of GLUT1 in human MCF7 cells assessed as reduction in GLUT1 degradation by CETSA assay. The series is classed as cell-based.
The subject of series [30] is MCF7. Kind of series: Induction of apoptosis in human MCF7 cells assessed as late apoptotic cells at 5 uM incubated for 24 hrs by Annexin V-FITC/7AAD staining based flow cytometery (reference value: 0.68%). Type of series: functional.
Series [31] deals with MCF7. Kind of series: Induction of apoptosis in human MCF7 cells assessed as late apoptotic cells at 20 uM incubated for 24 hrs by Annexin V-FITC/7AAD staining based flow cytometery (reference value: 0.68%). Type of series: functional.
In series [32] the test system is MCF7. Kind of series: Induction of apoptosis in human MCF7 cells assessed as early apoptotic cells at 20 uM incubated for 24 hrs by Annexin V-FITC/7AAD staining based flow cytometery (reference value: 0.50%). The series is classed as functional.
Series [33] has as its target T1, Solute carrier family 2, facilitated glucose transporter member 1 (Homo sapiens). Description: Inhibition of GLUTI (unknown origin).

Structures are written as SMILES. The source made the active and inactive calls. The calls are words filed in the database; no cut-off is given here.

In the case of `CC(=O)O[C@H]1C=C([C@H](C)[C@H]2CC(C)=C(C)C(=O)O2)[C@@]2(C)CC[C@H]3[C@@H](C[C@H]4O[C@]45[C@@H](O)C=CC(=O)[C@]35C)[C@@]12O`, the result in series [1] was Active.

Consider `CC(=O)O[C@H]1[C@@H]2O[C@]2([C@H](C)[C@H]2CC(CO)=C(C)C(=O)O2)[C@@]2(C)CCC3C(C[C@@H](O)[C@@]4(O)CC=CC(=O)[C@]34C)[C@@]12O` (some centres not stated), for which the viability at 20 µM with MCF7 [2] came out at 24.2%. Also, the fold change (FC) in series [3] stood at 0.68; in [8], 0.44; in the series with MCF7 [19], 2.8; in series [20], 0.4. Further, the Activity was 14.1% in the series with MCF7 [4]; 11.3% in the series on MCF7 [7]; 15% with MCF7 [9]; 5.76% in the series with MCF7 [12]; 22% in the series with MCF7 [13]; “Dose-Dependent Effect” in the series with MCF7 [14]. Moreover, the Activity with MCF7 [17] came to 3.84%; in the series on MCF7 [18], 46.7%; in the series on MCF7 [22], 47.6%; in the series with MCF7 [23], 60%; in the series with MCF7 [24] it was 4.56%; in the series on MCF7 [27], 0.92%. Besides, the results for the Activity with MCF7 [30], in the series on MCF7 [31] and in the series with MCF7 [32] were 15%, 60% and 14.9%, respectively. Further, in the series on MCF7 [5], the viability at 10 µM was found to be 34.6%. Also, the inhibition result in series [6], in series [10], in [25] and in [29] was “Active” in each case. In [11], the dissociation constant Kd is 2.6 µM. Also, the IC50 at 24 h in [15] was 18 µM. Moreover, the half-maximal inhibitory concentration (IC50) in [16] worked out at 3.46 µM; in series [21], 180 µM. Moreover, the viability at 5 µM with MCF7 [26] is 75.4%. Further, the inhibition result in [28] is “Dose-Dependent Effect”.

In the case of `CC(=O)O[C@H]1C=C([C@H](C)[C@H]2CC(C)=C(C)C(=O)O2)[C@@]2(C)CC[C@H]3C(C[C@@H](O)[C@@]4(Cl)CC=CC(=O)[C@]34C)[C@]12O` (some centres not stated), the inhibition entry in [33] is “Active”.

Regarding `CC(=O)O[C@H]1C[C@@](O)([C@H](C)[C@H]2CC(C)=C(C)C(=O)O2)[C@@]2(C)CC[C@H]3[C@@H](C[C@H]4O[C@]45[C@@H](O)C=CC(=O)[C@]35C)[C@@]12O`, in series [1], the result was Active.

For the molecule `CC(=O)O[C@H]1C[C@H]([C@H](C)[C@@H]2OC(=O)C(C)=C(C)[C@@H]2O)[C@@]2(C)CCC3C(C[C@@H](O)[C@@]4(O)CC=CC(=O)[C@]34C)[C@@]12O` (some centres not stated), in series [11], the Kd is 2.4 µM. In addition, the inhibition result in series [33] and in series [29] was “Active” each time. Besides, the outcome in series [1] was Active.

`CC(=O)O[C@H]1C[C@@](O)([C@H](C)[C@H]2CC(C)=C(C)C(=O)O2)[C@@]2(C)CC[C@H]3[C@@H](C[C@H]4O[C@]45CC=CC(=O)[C@]35C)[C@@]12O`: the Kd in [11] worked out at 2.6 µM. The outcome in series [1] was Active. The inhibition entry in [29] was “Active”.

As to `C[C@@]12C[C@H]3OC(=O)[C@@H]1CO[C@]14O[C@@]5([C@H]2C1=O)[C@@]3(C)OC(=O)[C@@]5(O)CC[C@H]1[C@H]4C[C@H]2O[C@]23CC=CC(=O)[C@]13C`, the outcome in series [1] was Active.
